Measured values from article PMC9105583, “Stereoselective Synthesis and Anticancer Activity of 2,6-Disubstituted trans-3-Methylidenetetrahydropyran-4-ones” (Materials, 2022).

Experiments:
γH2AX in HL-60 cells = assay: γH2AX (H2AX pS139) DNA damage detection, flow cytometry; type: cell-based, human; details: compound at 2IC50, 24 h; control 1.1 ± 0.17%
Description: Analysis of apoptosis, DNA damage and cell cycle
Apoptosis, DNA damage, proliferation and cell cycle kinetics were investigated using the Apoptosis, DNA Damage and Cell Proliferation Kit (BD Biosciences, San Jose, CA, USA) according to the manufacturer’s protocol. Briefly, HL-60 cells (2.0 × 10^5 cells/mL) were seeded in 6-well plates and left to grow for 24 h. Then, the cells were treated with 13d or 13g at IC50 and 2IC50 concentrations. After 24 h incubation, the cells were treated with BrdU solution for 8 h. Then, the cells were collected by centrifugation, fixed and permeabilized. To expose the incorporated BrdU, the cells were incubated with DNase (300 µg/mL in PBS) for 1 h at 37 °C. Afterwards, the cells were stained with fluorescent antibodies, including Anti-BrdU, Anti-Cleaved PARP (Asp214) and Anti-H2AX (pS139) for 20 min at room temperature. Total DNA for cell cycle analysis was stained using DAPI solution (1 µg/mL in staining buffer). Finally, the cells were analyzed by flow cytometry using CytoFLEX (Beckman Coulter, Inc., Brea, CA, USA) and the data analysis was performed with Kaluza Analysis Software v2 (Beckam Coulter, Inc., Brea, CA. USA).
DNA damage can be the result of either single- or double-strand breaks (DSBs). DSB are considered the most dangerous, as it is assumed that in metazoan, just one DSB has the potential to trigger cell death. […]

human topoisomerase IIα = target: T1, human topoisomerase IIα (Homo sapiens, UniProt P11388); assay: Human Topoisomerase II Decatenation Assay (kDNA); type: biochemical; details: for inhibition of topoisomerase II activity: 0.5 mM and 1 mM concentrations, 30 min at 37 °C
T1 construct: purchased Inspiralis, Norwich, UK
Description: Topoisomerase IIα activity
Topoisomerase IIα activity inhibition was assessed using the Human Topoisomerase II Decatenation Assay (Inspiralis, Norwich, UK). Briefly, kDNA was incubated with ATP, assay buffer (50 mM Tris-HCl pH 7.5, 125 mM NaCl, 10 mM MgCl2, 5 mM DTT, 100 µg/mL albumin), human topoisomerase II enzyme and various concentrations of the investigated compounds for 30 min at 37 °C. The reaction was stopped by addition of STEB (40% (w/v) sucrose, 100 mM Tris-HCl pH 8, 1 mM EDTA, 0.5 mg/mL bromophenol blue) followed by DNA extraction with chloroform/iso-amyl alcohol mixture (24:1). The samples were loaded onto a 1% agarose gel and run in a TBE buffer at 85 V for 65 min. Gels were stained with ethidium bromide (1 µg/mL) for 15 min, destained in water and visualized with a transilluminator (ChemiDoc MP Imaging System, Bio-Rad, Hercules, CA, USA).
The ability of the analogs to inhibit topoisomerase II activity was investigated by measuring decatenation of kinetoplast DNA (kDNA) by human topoisomerase IIα. Topoisomerase II has the ability to decatenate interlinked dsDNA minicircles.

T1 sequence (P11388 whole entry): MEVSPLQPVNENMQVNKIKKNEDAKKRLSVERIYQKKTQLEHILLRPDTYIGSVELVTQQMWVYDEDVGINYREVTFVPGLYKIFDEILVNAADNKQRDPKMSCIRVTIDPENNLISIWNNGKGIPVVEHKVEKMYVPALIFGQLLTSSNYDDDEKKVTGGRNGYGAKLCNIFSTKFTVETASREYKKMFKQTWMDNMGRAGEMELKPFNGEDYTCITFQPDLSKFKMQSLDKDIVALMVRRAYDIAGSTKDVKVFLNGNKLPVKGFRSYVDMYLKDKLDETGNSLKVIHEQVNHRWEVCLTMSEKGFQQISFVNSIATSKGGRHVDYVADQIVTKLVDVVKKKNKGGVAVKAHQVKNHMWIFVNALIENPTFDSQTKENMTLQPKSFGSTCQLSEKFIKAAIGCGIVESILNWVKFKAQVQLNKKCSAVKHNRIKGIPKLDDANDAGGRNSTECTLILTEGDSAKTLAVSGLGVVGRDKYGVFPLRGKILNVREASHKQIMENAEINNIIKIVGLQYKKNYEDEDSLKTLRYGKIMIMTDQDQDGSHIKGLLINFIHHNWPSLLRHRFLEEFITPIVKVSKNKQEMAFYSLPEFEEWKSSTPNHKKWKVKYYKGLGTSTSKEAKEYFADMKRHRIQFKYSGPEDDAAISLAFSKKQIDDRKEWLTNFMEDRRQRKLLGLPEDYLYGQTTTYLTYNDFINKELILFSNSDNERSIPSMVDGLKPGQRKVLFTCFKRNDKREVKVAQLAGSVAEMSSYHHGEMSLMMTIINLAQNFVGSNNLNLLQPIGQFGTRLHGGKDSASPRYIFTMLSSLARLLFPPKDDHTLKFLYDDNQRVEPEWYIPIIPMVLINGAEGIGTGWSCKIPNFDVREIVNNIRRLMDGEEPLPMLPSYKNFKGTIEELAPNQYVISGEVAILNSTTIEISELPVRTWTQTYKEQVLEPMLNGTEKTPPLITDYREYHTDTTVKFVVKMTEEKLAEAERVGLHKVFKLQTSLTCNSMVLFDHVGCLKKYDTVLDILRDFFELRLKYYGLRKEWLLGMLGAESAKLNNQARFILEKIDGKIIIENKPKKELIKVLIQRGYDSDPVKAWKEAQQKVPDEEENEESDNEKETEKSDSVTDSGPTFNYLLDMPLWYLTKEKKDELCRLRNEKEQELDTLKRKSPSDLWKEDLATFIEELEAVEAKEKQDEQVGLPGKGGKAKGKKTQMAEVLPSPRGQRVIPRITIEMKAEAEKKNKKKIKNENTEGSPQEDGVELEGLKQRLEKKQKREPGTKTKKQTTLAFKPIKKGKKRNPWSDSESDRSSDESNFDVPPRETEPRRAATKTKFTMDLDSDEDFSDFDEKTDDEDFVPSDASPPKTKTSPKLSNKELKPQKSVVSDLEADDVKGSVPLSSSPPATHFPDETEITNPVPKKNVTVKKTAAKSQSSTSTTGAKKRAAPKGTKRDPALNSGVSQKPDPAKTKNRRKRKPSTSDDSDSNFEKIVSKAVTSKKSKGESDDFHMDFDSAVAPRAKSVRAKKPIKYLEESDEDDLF

SMILES | cells with γH2AX generation (H2AX phosphorylation) (γH2AX in HL-60 cells) [%] | inhibition of topoisomerase II activity (human topoisomerase IIα) | inhibitory activity towards topoisomerase IIα compared with 13d (human topoisomerase IIα; 0.5 and 1 mM)
C=C1C(=O)C[C@H](C(C)C)O[C@H]1C(C)C (relative stereo) [Analog 13d, Trans-2,6-diisopropyl-3-methylidenetetrahydro-4H-pyran-4-one] | 38.4 ± 5.89 | inhibited topoisomerase II activity | 
C=C1C(=O)C[C@H](c2ccccc2)O[C@H]1C(C)C (relative stereo) [Analog 13g, Trans-2-isopropyl-3-methylidene-6-phenyltetrahydro-4H-pyran-4-one] | 9.6 ± 2.94 | inhibited topoisomerase II activity | stronger inhibitory activity
